According to patent US9409952B2, “Peptide-compound cyclization method” (Chugai Seiyaku Kabushiki Kaisha, priority 2011, dated 2016):
Like-named read-outs stand apart in the source and are kept apart here. Starred links: 1 amine or outer side, 2 acyl side, 3 side chain; linkers in the order of their positions; H or OH if unused. Positions of bridges follow the written chain, without caps; N, C: chain ends. Non-standard residues stand in square brackets, D forms with d. Residues, ends and D or L forms follow the SMILES beside them. ξ: configuration not given here. *: point of attachment. NMeF = CN[C@@H](Cc1ccccc1)C(=O)O; NMeI = CC[C@H](C)[C@H](NC)C(=O)O; NMeβAla = CN(CCC(=O)[*:2])[*:1]; NMeL = CN[C@@H](CC(C)C)C(=O)O; Thr(3ξ) = CC(O)[C@H](N)C(=O)O; NMeV = CN[C@H](C(=O)O)C(C)C; NMeA = CN[C@@H](C)C(=O)O; Piperidide = C1CCN(*)CC1; dNMeA = CN[C@H](C)C(=O)O; Sar = CNCC(=O)O; tBu = CC(C)(C)*

Experiments:
[1] = PAMPA (parallel artificial membrane permeability assay); assay type: in vitro ADME; settings: PAMPA
Outline: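 Artificial membrane was 10% (w/v) egg lecithin plus 0.5% (w/v) cholesterol in dodecane on a PVDF filter. A 10 mM DMSO stock was added at 0.5% (v/v) to donor buffer (50 mM MOPSO, pH 6.5, 5.0% glycocholic acid). After 18 h at 37 °C, LC/MS or LC/UV gave donor and acceptor levels for Pe.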

[2] = Metabolic stability in human hepatic microsome; assay type: in vitro ADME; settings: microsomes
[3] = membrane permeation rate (Pe), 50 mM MOPSO buffer pH 6.5 with 5.0% glycocholic acid, 37° C., 18 hours, read-out: iPAMPA Pe
[4] = pH 7.4, human hepatic microsome, NADPH(+), read-out: CL NADPH(+)

Row | SMILES | Papp at 18 hours, 50 µM [1, 3] | microsomal CLint at 1 uM [2, 4] | Papp at 18 hours, 50 µM ([1]; pH 6.5) | microsomal CLint at 1 uM ([2]; human, pH 7.4, CL NADPH(+))
1 | CC[C@H](C)[C@H]1C(=O)N[C@@H](CC(C)C)C(=O)N(C)[C@@H](Cc2ccccc2)C(=O)N(C)[C@@H](CC(C)C)C(=O)N[C@@H]([C@@H](C)O)C(=O)N[C@@H](Cc2ccccc2)C(=O)N(C)[C@@H](C(C)C)C(=O)N[C@H](C(=O)N2CCCCC2)CC(=O)N(C)CC(=O)N[C@@H](C)C(=O)N1C [DP-145] ([Sar]A[NMeI]L[NMeF][NMeL]TF[NMeV]D-Piperidide; lactam N-10) | 29 ×10⁻⁶ cm/s | 232 µL/min/mg | – | –
2 | CC(C)C[C@@H]1NC(=O)[C@@H]2CCCN2C(=O)[C@H](Cc2ccccc2)N(C)C(=O)[C@H](C)N(C)C(=O)[C@H]([C@@H](C)O)NC(=O)[C@@H](C(C)C)NC(=O)C[C@@H](C(=O)N2CCCCC2)NC(=O)[C@H](CC(C)C)N(C)C(=O)[C@H](C)N(C)C(=O)[C@H](Cc2ccccc2)NC(=O)[C@H](C(C)C)N(C)C1=O [DP-146] ([dV]T[NMeA][NMeF]PL[NMeV]F[NMeA][NMeL]D-Piperidide; lactam N-11) | – | – | 26 ×10⁻⁶ cm/s | 52 µL/min/mg
3 | CC[C@H](C)[C@H]1C(=O)N[C@@H](C)C(=O)N(C)[C@@H](CC(C)C)C(=O)N(C)[C@@H](Cc2ccccc2)C(=O)N[C@@H]([C@@H](C)O)C(=O)N(C)[C@@H](Cc2ccccc2)C(=O)N(C)[C@@H](CC(C)C)C(=O)N(C)[C@@H](CC(C)C)C(=O)N[C@H](C(=O)N2CCCCC2)CC(=O)N(C)CC(=O)N1C [DP-147] ([Sar][NMeI]A[NMeL][NMeF]T[NMeF][NMeL][NMeL]D-Piperidide; lactam N-10) | – | – | 29 ×10⁻⁶ cm/s | 147 µL/min/mg
4 | CC(C)C[C@H]1C(=O)N[C@@H](COC(C)(C)C)C(=O)N[C@H](C(=O)N2CCCCC2)CC(=O)N[C@H](C)C(=O)N(C)[C@@H](C)C(=O)N(C)[C@@H](Cc2ccccc2)C(=O)N(C)[C@@H](CC(C)C)C(=O)N[C@@H]([C@@H](C)O)C(=O)N(C)[C@@H](C)C(=O)N1C [DP-148] ([dA][NMeA][NMeF][NMeL]T[NMeA][NMeL]S(tBu)D-Piperidide; lactam N-9) | – | – | 31 ×10⁻⁶ cm/s | 69 µL/min/mg
5 | CC(C)C[C@H]1C(=O)N[C@@H]([C@@H](C)O)C(=O)N(C)[C@@H](C)C(=O)N[C@H](C(=O)N2CCCCC2)CC(=O)N(C)[C@@H](C)C(=O)N[C@@H](C)C(=O)N(C)[C@@H](Cc2ccccc2)C(=O)N(C)[C@@H](CC(C)C)C(=O)N[C@@H](Cc2ccccc2)C(=O)N1C [DP-150] ([NMeA]A[NMeF][NMeL]F[NMeL]T[NMeA]D-Piperidide; lactam N-9) | 33 ×10⁻⁶ cm/s | 701 µL/min/mg | – | –
6 | CC(C)C[C@H]1C(=O)N(C)[C@@H](CC(C)C)C(=O)N(C)CC(=O)N(C)[C@@H](Cc2ccccc2)C(=O)N[C@@H](C)C(=O)N(C)[C@@H](Cc2ccccc2)C(=O)N(C)[C@@H](CC(C)C)C(=O)N[C@@H]([C@@H](C)O)C(=O)N[C@H](C(=O)N2CCCCC2)CC(=O)N[C@H](C(C)C)C(=O)N(C)[C@@H](C)C(=O)N1C [DP-151] ([dV][NMeA][NMeL][NMeL][Sar][NMeF]A[NMeF][NMeL]TD-Piperidide; lactam N-11) | 27 ×10⁻⁶ cm/s | 30 µL/min/mg | – | –
7 | CC[C@H](C)[C@H]1C(=O)N[C@H](C(=O)N2CCCCC2)CC(=O)N(C)[C@@H](C)C(=O)N(C)[C@@H](CC(C)C)C(=O)N(C)[C@@H](Cc2ccccc2)C(=O)N[C@@H]([C@@H](C)O)C(=O)N(C)CC(=O)N(C)[C@@H](CC(C)C)C(=O)N[C@@H](COC(C)(C)C)C(=O)N1C [DP-152] ([NMeA][NMeL][NMeF]T[Sar][NMeL]S(tBu)[NMeI]D-Piperidide; lactam N-9) | 61 ×10⁻⁶ cm/s | 93 µL/min/mg | – | –
8 | CC(C)C[C@H]1C(=O)N(C)[C@@H](Cc2ccccc2)C(=O)N(C)[C@@H](CC(C)C)C(=O)N[C@@H](Cc2ccccc2)C(=O)N[C@@H]([C@@H](C)O)C(=O)N(C)[C@@H](C)C(=O)N[C@H](C(=O)N2CCCCC2)CC(=O)N(C)CCC(=O)N[C@@H](C)C(=O)N1C [DP-153] ([NMeβAla]A[NMeL][NMeF][NMeL]FT[NMeA]D-Piperidide; lactam N-9) | 26 ×10⁻⁶ cm/s | 179 µL/min/mg | – | –
9 | CC[C@H](C)[C@H]1C(=O)N[C@H](C(=O)N2CCCCC2)CC(=O)N(C)CCC(=O)N(C)[C@@H](Cc2ccccc2)C(=O)N(C)[C@@H](CC(C)C)C(=O)N[C@@H]([C@@H](C)O)C(=O)N(C)CC(=O)N(C)[C@@H](CC(C)C)C(=O)N[C@@H](COC(C)(C)C)C(=O)N1C [DP-155] ([NMeβAla][NMeF][NMeL]T[Sar][NMeL]S(tBu)[NMeI]D-Piperidide; lactam N-9) | – | – | 55 ×10⁻⁶ cm/s | 101 µL/min/mg
10 | CC(C)C[C@H]1C(=O)N(C)[C@@H](Cc2ccccc2)C(=O)N[C@@H](Cc2ccccc2)C(=O)N(C)[C@@H](CC(C)C)C(=O)N[C@@H]([C@@H](C)O)C(=O)N(C)[C@@H](C)C(=O)N[C@H](C(=O)N2CCCCC2)CC(=O)N(C)[C@H](C)C(=O)N[C@@H](C)C(=O)N1C [DP-157] ([dNMeA]A[NMeL][NMeF]F[NMeL]T[NMeA]D-Piperidide; lactam N-9) | 27 ×10⁻⁶ cm/s | 368 µL/min/mg | – | –
11 | CC(C)C[C@H]1C(=O)N(C)[C@@H](Cc2ccccc2)C(=O)N(C)[C@@H](Cc2ccccc2)C(=O)N[C@@H]([C@@H](C)O)C(=O)N(C)[C@@H](C)C(=O)N(C)[C@@H](CC(C)C)C(=O)N[C@H](C(=O)N2CCCCC2)CC(=O)N(C)[C@@H](C)C(=O)N(C)[C@@H](CC(C)C)C(=O)N(C)[C@@H](CC(C)C)C(=O)N[C@@H](C)C(=O)N1C [DP-158] ([NMeA][NMeL][NMeL]A[NMeL][NMeF][NMeF]T[NMeA][NMeL]D-Piperidide; lactam N-11) | 49 ×10⁻⁶ cm/s | 41 µL/min/mg | – | –
12 | CC[C@H](C)[C@@H]1NC(=O)CCN(C)C(=O)C[C@@H](C(=O)N2CCCCC2)NC(=O)[C@H](Cc2ccccc2)N(C)C(=O)[C@H](CC(C)C)N(C)C(=O)[C@H](C)N(C)C(=O)[C@H](Cc2ccccc2)N(C)C(=O)[C@H]([C@@H](C)O)NC(=O)[C@H](CC(C)C)N(C)C(=O)[C@H](C)N(C)C(=O)[C@H](CC(C)C)N(C)C1=O [DP-159] ([NMeβAla]I[NMeL][NMeA][NMeL]T[NMeF][NMeA][NMeL][NMeF]D-Piperidide; lactam N-11) | 39 ×10⁻⁶ cm/s | 54 µL/min/mg | – | –
13 | CC(C)C[C@H]1C(=O)N[C@@H](COC(C)(C)C)C(=O)N[C@H](C(=O)N2CCCCC2)CC(=O)N(C)[C@H](C)C(=O)N(C)[C@@H](C)C(=O)N(C)[C@@H](Cc2ccccc2)C(=O)N(C)[C@@H](CC(C)C)C(=O)N[C@@H]([C@@H](C)O)C(=O)N(C)[C@@H](C)C(=O)N1C [DP-160] ([dNMeA][NMeA][NMeF][NMeL]T[NMeA][NMeL]S(tBu)D-Piperidide; lactam N-9) | 37 ×10⁻⁶ cm/s | 68 µL/min/mg | – | –
14 | CC(C)C[C@H]1C(=O)N[C@@H](Cc2ccccc2)C(=O)N[C@@H]([C@@H](C)O)C(=O)N(C)[C@@H](C)C(=O)N[C@H](C(=O)N2CCCCC2)CC(=O)N(C)CC(=O)N[C@@H](C)C(=O)N(C)[C@@H](Cc2ccccc2)C(=O)N(C)[C@@H](CC(C)C)C(=O)N1C [DP-161] ([Sar]A[NMeF][NMeL][NMeL]FT[NMeA]D-Piperidide; lactam N-9) | 26 ×10⁻⁶ cm/s | 194 µL/min/mg | – | –
15 | CC[C@H](C)[C@@H]1NC(=O)[C@H](CC(C)C)N(C)C(=O)[C@H](Cc2ccccc2)NC(=O)[C@@H](C)N(C)C(=O)C[C@@H](C(=O)N2CCCCC2)NC(=O)[C@H](Cc2ccccc2)NC(=O)[C@H](C(C)O)NC(=O)[C@@H]2CCCN2C(=O)[C@H](CC(C)C)N(C)C(=O)CNC(=O)[C@H](CC(C)C)N(C)C1=O (some centres unmarked) [DP-162] ([dNMeA]F[NMeL]I[NMeL]G[NMeL]P[Thr(3ξ)]FD-Piperidide; lactam N-11) | 35 ×10⁻⁶ cm/s | 90 µL/min/mg | – | –
16 | CC(C)C[C@H]1C(=O)N[C@@H](COC(C)(C)C)C(=O)N[C@H](C(=O)N2CCCCC2)CC(=O)N(C)CC(=O)N(C)[C@@H](Cc2ccccc2)C(=O)N(C)[C@@H](C)C(=O)N(C)[C@@H](CC(C)C)C(=O)N[C@@H]([C@@H](C)O)C(=O)N(C)[C@@H](C)C(=O)N1C [DP-163] ([Sar][NMeF][NMeA][NMeL]T[NMeA][NMeL]S(tBu)D-Piperidide; lactam N-9) | 23 ×10⁻⁶ cm/s | 68 µL/min/mg | – | –
17 | CC[C@H](C)[C@@H]1NC(=O)[C@H](Cc2ccccc2)N(C)C(=O)[C@H](C)N(C)C(=O)[C@H]([C@@H](C)O)NC(=O)[C@@H](C)N(C)C(=O)C[C@@H](C(=O)N2CCCCC2)NC(=O)[C@H](CC(C)C)N(C)C(=O)[C@H](C)N(C)C(=O)[C@H](Cc2ccccc2)NC(=O)[C@H](C(C)C)N(C)C(=O)[C@@H]2CCCN2C1=O [DP-164] ([dNMeA]T[NMeA][NMeF]IP[NMeV]F[NMeA][NMeL]D-Piperidide; lactam N-11) | – | – | 30 ×10⁻⁶ cm/s | 253 µL/min/mg
18 | CC(C)C[C@@H]1NC(=O)[C@H](CC(C)C)N(C)C(=O)[C@H](C)N(C)C(=O)[C@@H](C)N(C)C(=O)C[C@@H](C(=O)N2CCCCC2)NC(=O)[C@H]([C@@H](C)O)NC(=O)CN(C)C(=O)[C@H](Cc2ccccc2)NC(=O)[C@H](CC(C)C)N(C)C(=O)[C@H](C(C)C)N(C)C(=O)[C@H](Cc2ccccc2)N(C)C1=O [DP-165] ([dNMeA][NMeA][NMeL]L[NMeF][NMeV][NMeL]F[Sar]TD-Piperidide; lactam N-11) | 56 ×10⁻⁶ cm/s | 42 µL/min/mg | – | –
19 | CC(C)C[C@@H]1NC(=O)[C@H](CC(C)C)N(C)C(=O)[C@H](C)NC(=O)[C@H](C)N(C)C(=O)[C@H]([C@@H](C)O)NC(=O)CN(C)C(=O)[C@H](C(C)C)N(C)C(=O)[C@H](CC(C)C)N(C)C(=O)[C@H](Cc2ccccc2)NC(=O)CN(C)C(=O)C[C@@H](C(=O)N2CCCCC2)NC1=O [DP-167] ([Sar]F[NMeL][NMeV][Sar]T[NMeA]A[NMeL]LD-Piperidide; lactam N-11) | 9.5 ×10⁻⁶ cm/s | 75 µL/min/mg | – | –
